As usually defined, the mass density is mass per unit of volume.

We go through five molecules from the NIST ThermoML archive (doi:10.1016/j.fluid.2013.11.008).

± gives the expanded uncertainty stated by the source.

For data set [1] the following is noted: for mass density: 298.15 K, 101.33 kPa, Liquid, Pycnometric method.
Data set [2] in a line: Molar enthalpy of transition or fusion. The following applies: Crystal; DSC.

Regarding `CO` [methanol], the mass density in data set [1] stood at 785.9 ± 40 kg/m3. Consider `C[C@]12CCC(=O)C=C1CC[C@@H]1[C@@H]2CC[C@]2(C)C(=O)CC[C@@H]12` [androst-4-ene-3,17-dione], for which the Normal melting temperature in data set [1] (Crystal, DTA) was 171.39 ± 0.7 °C. For the same molecule, the “Molar enthalpy of transition or fusion” value in data set [2] was 25.7 ± 1.6 kJ/mol. Take `CCCCO` [butan-1-ol]: in data set [1], the mass density was found to be 805.5 ± 40 kg/m3.

For `CCO` [ethanol], in data set [1], the mass density is given as 786.4 ± 40 kg/m3. Same read-out and setting: the figure for `CC(C)O` [propan-2-ol] is 782.7 ± 40 kg/m3.
